According to ChEMBL document CHEMBL5034023, “Development of Multifunctional and Orally Active Cyclic Peptide Agonists of Opioid/Neuropeptide FF Receptors that Produce Potent, Long-Lasting, and Peripherally Restricted Antinociception with Diminished Side Effects” (J Med Chem, 2021):
Bridge positions count the residues as written; N and C are the ends. Square brackets hold non-standard residues; d marks the D form. Peptide text beside a SMILES is read from it. NMeF = CN[C@@H](Cc1ccccc1)C(=O)O

Legend:
[1] = Toxicity in Kunming mouse assessed as effect on conditioned place preference at 868.1 nmol/kg, po measured for 5 days; format: organism-based; conditions: in vivo, 120 h, time 5 day
[2] = Half life in Kunming mouse at 868.1 nmol/kg, po measured up to 120 mins by LC-MS/MS analysis; format: ADME, organism-based; conditions: in vivo

## CN1C(=O)CNC(=O)[C@H](NC(=O)[C@@H](N)Cc2ccc(O)cc2)CCCCNC(=O)C[C@@H](C(=O)N2CCC[C@H]2C(=O)N[C@@H](CCC(N)=O)C(=O)N[C@@H](CCCNC(=N)N)C(=O)N[C@@H](Cc2ccccc2)C(N)=O)NC(=O)[C@@H]1Cc1ccccc1 (H-Y[dK]G[NMeF]DPQRF-NH2; lactam 2-5)
[1]
  Activity: Non-Toxic
[2]
  half-life: 3.13 h
